Where “and” joins values, the source holds several entries; their conditions need not be identical. Equal entries are not always repeated. Inconclusive results and toxic doses are left out.
System: CD2F1 mice, L1210 leukemia ip, survival T/C
Assay: NCI In Vivo Anticancer Drug Screen. Data for tumor model L1210 Leukemia (intraperitoneal) in CD2F1 (CDF1) mice
Settings: higher = longer survival
How it was run: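 Each value reflects a quotient of treated over vehicle control outcomes in mice with a transplanted tumor.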

[1] = endpoint: mean survival time, dose: 100.0 mg/kg/injection, schedule: Q01DX009 (ip), vehicle: saline with Tween-80
[2] = endpoint: mean survival time, dose: 200.0 mg/kg/injection, schedule: Q01DX009 (ip), vehicle: saline with Tween-80
[3] = endpoint: mean survival time, dose: 400.0 mg/kg/injection, schedule: Q01DX009 (ip), vehicle: saline with Tween-80
[4] = endpoint: mean survival time, dose: 100.0 mg/kg/injection, schedule: Q04DX003 (ip), vehicle: saline with Tween-80

In the case of `OC(C1CO1)C(O)C1CO1` (stereo unspecified), the T/C (endpoint: mean survival time, dose: 0.13 mg/kg/injection, schedule: Q03HX008 (ip), vehicle: saline) is reported as 101 % of control, the T/C (endpoint: mean survival time, dose: 0.25 mg/kg/injection, schedule: Q03HX008 (ip), vehicle: saline) is reported as 105 % of control and the T/C (endpoint: mean survival time, dose: 0.25 mg/kg/injection, schedule: Q03HX016 (ip), vehicle: saline) is reported as 104 % of control. The T/C (endpoint: mean survival time, dose: 0.25 mg/kg/injection, schedule: Q03HX024 (ip), vehicle: saline) was 104 % of control, the T/C (endpoint: mean survival time, dose: 0.5 mg/kg/injection, schedule: Q01DX009 (ip), vehicle: saline) was 117 % of control and 119 % of control and 121 % of control and the T/C (endpoint: mean survival time, dose: 0.5 mg/kg/injection, schedule: Q01DX009 (sc), vehicle: saline) was 104 % of control. The T/C (endpoint: mean survival time, dose: 0.5 mg/kg/injection, schedule: Q03HX008 (ip), vehicle: saline) was 112 % of control, the T/C (endpoint: mean survival time, dose: 0.5 mg/kg/injection, schedule: Q03HX016 (ip), vehicle: saline) was 115 % of control and the T/C (endpoint: mean survival time, dose: 1.0 mg/kg/injection, schedule: Q01DX001 (ip), vehicle: saline) was 98 % of control and 108 % of control. For the same compound, the T/C (endpoint: mean survival time, dose: 1.0 mg/kg/injection, schedule: Q01DX001 (sc), vehicle: saline) was 106 % of control, the T/C (endpoint: mean survival time, dose: 1.0 mg/kg/injection, schedule: Q01DX009 (sc), vehicle: saline) was 114 % of control and the T/C (endpoint: mean survival time, dose: 1.0 mg/kg/injection, schedule: Q03HX024 (ip), vehicle: saline) was 177 % of control. For the same compound, the T/C (endpoint: mean survival time, dose: 1.0 mg/kg/injection, schedule: Q04DX003 (ip), vehicle: saline) was 107 % of control, the T/C (endpoint: mean survival time, dose: 1.4 mg/kg/injection, schedule: Q04DX003 (ip), vehicle: saline) was 96 % of control and the T/C (endpoint: mean survival time, dose: 2.0 mg/kg/injection, schedule: Q01DX001 (ip), vehicle: saline) was 116 % of control and 111 % of control. The T/C (endpoint: mean survival time, dose: 2.0 mg/kg/injection, schedule: Q01DX001 (sc), vehicle: saline) was 111 % of control, the T/C (endpoint: mean survival time, dose: 2.0 mg/kg/injection, schedule: Q03HX008 (ip), vehicle: saline) was 171 % of control and the T/C (endpoint: mean survival time, dose: 2.0 mg/kg/injection, schedule: Q03HX016 (ip), vehicle: saline) was 201 % of control. The T/C (endpoint: mean survival time, dose: 2.0 mg/kg/injection, schedule: Q03HX024 (ip), vehicle: saline) was 109 % of control, the T/C (endpoint: mean survival time, dose: 2.0 mg/kg/injection, schedule: Q04DX003 (ip), vehicle: saline) was 123 % of control and 104 % of control and 112 % of control and the T/C (endpoint: mean survival time, dose: 2.0 mg/kg/injection, schedule: Q08DX002 (ip), vehicle: saline) was 118 % of control. For the same compound, the T/C (endpoint: mean survival time, dose: 3.0 mg/kg/injection, schedule: Q01DX009 (ip), vehicle: saline) was 192 % of control, the T/C (endpoint: mean survival time, dose: 3.0 mg/kg/injection, schedule: Q04DX003 (ip), vehicle: saline) was 119 % of control and the T/C (endpoint: mean survival time, dose: 4.0 mg/kg/injection, schedule: Q01DX001 (ip), vehicle: saline) was 115 % of control and 121 % of control. The T/C (endpoint: mean survival time, dose: 4.0 mg/kg/injection, schedule: Q01DX001 (sc), vehicle: saline) was 112 % of control, the T/C (endpoint: mean survival time, dose: 4.0 mg/kg/injection, schedule: Q01DX009 (ip), vehicle: saline) was 204 % of control and 247 % of control and the T/C (endpoint: mean survival time, dose: 4.0 mg/kg/injection, schedule: Q01DX009 (sc), vehicle: saline) was 163 % of control. For the same compound, the T/C (endpoint: mean survival time, dose: 4.6 mg/kg/injection, schedule: Q01DX009 (ip), vehicle: saline) was 182 % of control, the T/C (endpoint: mean survival time, dose: 4.6 mg/kg/injection, schedule: Q04DX003 (ip), vehicle: saline) was 162 % of control and the T/C (endpoint: mean survival time, dose: 5.0 mg/kg/injection, schedule: Q01DX001 (ip), vehicle: saline) was 123 % of control. The T/C (endpoint: mean survival time, dose: 6.7 mg/kg/injection, schedule: Q04DX003 (ip), vehicle: saline) was 171 % of control, the T/C (endpoint: mean survival time, dose: 7.0 mg/kg/injection, schedule: Q01DX001 (ip), vehicle: saline) was 156 % of control and the T/C (endpoint: mean survival time, dose: 7.0 mg/kg/injection, schedule: Q01DX009 (ip), vehicle: saline) was 106 % of control. The T/C (endpoint: mean survival time, dose: 7.0 mg/kg/injection, schedule: Q04DX003 (ip), vehicle: saline) was 190 % of control, the T/C (endpoint: mean survival time, dose: 8.0 mg/kg/injection, schedule: Q01DX001 (ip), vehicle: saline) was 155 % of control and 156 % of control and the T/C (endpoint: mean survival time, dose: 8.0 mg/kg/injection, schedule: Q01DX009 (ip), vehicle: saline) was 96 % of control and 97 % of control. The T/C (endpoint: mean survival time, dose: 8.0 mg/kg/injection, schedule: Q01DX009 (sc), vehicle: saline) was 105 % of control, the T/C (endpoint: mean survival time, dose: 8.0 mg/kg/injection, schedule: Q04DX003 (ip), vehicle: saline) was 189 % of control and 446 % of control and the T/C (endpoint: mean survival time, dose: 8.0 mg/kg/injection, schedule: Q08DX002 (ip), vehicle: saline) was 184 % of control. The T/C (endpoint: mean survival time, dose: 10.0 mg/kg/injection, schedule: Q04DX003 (ip), vehicle: saline) was 288 % of control, the T/C (endpoint: mean survival time, dose: 10.6 mg/kg/injection, schedule: Q01DX009 (ip), vehicle: saline) was 100 % of control and the T/C (endpoint: mean survival time, dose: 10.6 mg/kg/injection, schedule: Q04DX003 (ip), vehicle: saline) was 243 % of control. For the same compound, the T/C (endpoint: mean survival time, dose: 16.0 mg/kg/injection, schedule: Q01DX001 (ip), vehicle: saline) was 175 % of control, the T/C (endpoint: mean survival time, dose: 16.0 mg/kg/injection, schedule: Q01DX001 (sc), vehicle: saline) was 174 % of control and the T/C (endpoint: mean survival time, dose: 16.0 mg/kg/injection, schedule: Q04DX003 (ip), vehicle: saline) was 116 % of control. The T/C (endpoint: mean survival time, dose: 16.0 mg/kg/injection, schedule: Q08DX002 (ip), vehicle: saline) was 162 % of control, the T/C (endpoint: mean survival time, dose: 20.0 mg/kg/injection, schedule: Q01DX001 (ip), vehicle: saline) was 92 % of control and the T/C (endpoint: median survival time, dose: 2.0 mg/kg/injection, schedule: Q01DX001 (ip), vehicle: saline) was 119 % of control and 104 % of control. The T/C (endpoint: median survival time, dose: 4.0 mg/kg/injection, schedule: Q01DX001 (ip), vehicle: saline) was 117 % of control, the T/C (endpoint: median survival time, dose: 4.0 mg/kg/injection, schedule: Q03DX003 (ip), vehicle: saline) was 175 % of control and 222 % of control and the T/C (endpoint: median survival time, dose: 6.0 mg/kg/injection, schedule: Q03DX003 (ip), vehicle: saline) was 189 % of control and 266 % of control. For the same compound, the T/C (endpoint: median survival time, dose: 8.0 mg/kg/injection, schedule: Q03DX003 (ip), vehicle: saline) was 206 % of control and 253 % of control, the T/C (endpoint: median survival time, dose: 12.0 mg/kg/injection, schedule: Q03DX003 (ip), vehicle: saline) was 229 % of control and the T/C (endpoint: median survival time, dose: 16.0 mg/kg/injection, schedule: Q01DX001 (ip), vehicle: saline) was 168 % of control and 182 % of control. For the same compound, the T/C (endpoint: median survival time, dose: 32.0 mg/kg/injection, schedule: Q01DX001 (ip), vehicle: saline) was 113 % of control and 104 % of control and the T/C (endpoint: median survival time, dose: 64.0 mg/kg/injection, schedule: Q01DX001 (ip), vehicle: saline) was 117 % of control and 105 % of control.
For `COc1ccccc1NC(=O)OCC(Cl)(Cl)Cl`, the T/C (endpoint: mean survival time, dose: 100.0 mg/kg/injection, schedule: Q04DX002 (ip), vehicle: saline with Tween-80) was 103 % of control, the T/C (endpoint: mean survival time, dose: 200.0 mg/kg/injection, schedule: Q04DX002 (ip), vehicle: saline with Tween-80) was 100 % of control and the T/C (endpoint: mean survival time, dose: 400.0 mg/kg/injection, schedule: Q04DX002 (ip), vehicle: saline with Tween-80) was 95 % of control.
For `COc1cc2c(cc1OC)-c1c3c(cc4c1[C@@H](C2)N(C)CC4)OCO3`, the T/C (endpoint: median survival time, dose: 12.5 mg/kg/injection, schedule: Q01DX005 (ip), vehicle: distilled water + Tween-80) was 96 % of control, the T/C (endpoint: median survival time, dose: 25.0 mg/kg/injection, schedule: Q01DX005 (ip), vehicle: distilled water + Tween-80) was 104 % of control and the T/C (endpoint: median survival time, dose: 50.0 mg/kg/injection, schedule: Q01DX005 (ip), vehicle: distilled water + Tween-80) was 87 % of control. The T/C (endpoint: median survival time, dose: 100.0 mg/kg/injection, schedule: Q01DX005 (ip), vehicle: distilled water + Tween-80) was 107 % of control.
In the case of `O=C(O)c1ccccc1C(c1ccccc1)c1ccccc1`, the T/C (endpoint: mean survival time, dose: 50.0 mg/kg/injection, schedule: Q01DX009 (ip), vehicle: saline with Tween-80) is reported as 94 % of control and the T/C [1] is reported as 94 % of control.
For `CC(C)C1=CC2=CCC3C(C)(C#N)CCCC3(C)C2CC1CC#N` (stereo unspecified), the T/C [1] was 92 % of control, the T/C [2] was 86 % of control and the T/C [3] was 86 % of control.
With `NC(=O)NC(=S)NC(=O)c1ccccc1` the T/C [1] was 111 % of control, the T/C [4] was 102 % of control and the T/C [2] was 98 % of control. For the same compound, the T/C (endpoint: mean survival time, dose: 200.0 mg/kg/injection, schedule: Q04DX003 (ip), vehicle: saline with Tween-80) was 98 % of control, the T/C [3] was 98 % of control and the T/C (endpoint: mean survival time, dose: 400.0 mg/kg/injection, schedule: Q04DX003 (ip), vehicle: saline with Tween-80) was 101 % of control.
For `O=c1cc(NCCCc2ccccc2)[nH]c(=O)[nH]1`, the T/C (endpoint: mean survival time, dose: 100.0 mg/kg/injection, schedule: Q01DX001 (ip), vehicle: saline with Tween-80) was 100 % of control, the T/C (endpoint: mean survival time, dose: 200.0 mg/kg/injection, schedule: Q01DX001 (ip), vehicle: saline with Tween-80) was 92 % of control and the T/C (endpoint: mean survival time, dose: 400.0 mg/kg/injection, schedule: Q01DX001 (ip), vehicle: saline with Tween-80) was 93 % of control.
With `Cc1ccc(-n2c(=S)[nH]c3ccccc3c2=O)cc1` the T/C [4] was 100 % of control.
For `O=[N+]([O-])c1ccc(O/N=C(\CN2CCCC2)c2ccc(Cl)cc2)c([N+](=O)[O-])c1`, the T/C (endpoint: mean survival time, dose: 100.0 mg/kg/injection, schedule: Q01DX001 (ip), vehicle: Klucel (hydroxypropylcellulose) (HPC)) was 90 % of control, the T/C (endpoint: mean survival time, dose: 200.0 mg/kg/injection, schedule: Q01DX001 (ip), vehicle: Klucel (hydroxypropylcellulose) (HPC)) was 87 % of control and the T/C (endpoint: mean survival time, dose: 400.0 mg/kg/injection, schedule: Q01DX001 (ip), vehicle: Klucel (hydroxypropylcellulose) (HPC)) was 98 % of control.
